Assay type in all cases: biochemical
One test concerns the target T1, Stk6 (Homo sapiens, UniProt O14965).
T1 construct: purchased Invitrogen (Carlsbad, Calif.), screening service
T1 sequence (O14965 1-403): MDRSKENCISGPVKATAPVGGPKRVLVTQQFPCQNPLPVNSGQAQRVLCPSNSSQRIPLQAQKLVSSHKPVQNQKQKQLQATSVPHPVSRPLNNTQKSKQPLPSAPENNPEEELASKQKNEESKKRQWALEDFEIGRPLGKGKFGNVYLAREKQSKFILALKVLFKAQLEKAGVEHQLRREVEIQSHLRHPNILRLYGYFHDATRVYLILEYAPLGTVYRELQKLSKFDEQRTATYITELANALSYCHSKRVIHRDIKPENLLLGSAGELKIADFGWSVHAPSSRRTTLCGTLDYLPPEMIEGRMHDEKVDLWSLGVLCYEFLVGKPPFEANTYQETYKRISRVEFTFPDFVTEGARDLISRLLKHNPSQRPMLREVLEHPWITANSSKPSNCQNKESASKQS
The test can be described thus: Z'-Lyte FRET kinase assay (Invitrogen), Stk6. As to conditions: read-out: IC50, activity toward kinase Stk6.

Another test concerns the target T2, Jnk3 (Homo sapiens, UniProt P53779).
T2 construct: purchased Upstate Biotechnology
The test can be described thus: AlphaScreen kinase assay, Jnk3. As to conditions: read-out: IC50, activity toward kinase Jnk3. Background: Alpha assays give light when donor and acceptor beads are brought close together.

A further test deals with T3, Met (Homo sapiens, UniProt P08581).
T3 construct: P1818.pETN6 BI-PTP MET G1056-G1364-X WT; His6 (N); made in house; host or cells: E. coli (PTP1B co-expressed)
The experiment in a line: AlphaScreen kinase assay, Met. As to conditions: read-out: IC50, activity toward kinase Met. In a few lines:
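Biotinylated peptide substrate is phosphorylated by kinase; anti-phosphopeptide antibody on acceptor beads and streptavidin donor beads bring emission when substrate is phosphorylated. Inhibition lowers acceptor signal. Compounds from 20 mM DMSO stock tested as 8-point 1:3 serial dilutions.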

Another test deals with T4, Pyk2 (Homo sapiens, UniProt Q14289).
T4 construct: purchased Upstate Biotechnology
The test can be described thus: AlphaScreen kinase assay, Pyk2. As to conditions: read-out: IC50, activity toward kinase Pyk2.

T3 sequence (P08581 with tags, fused parts or gaps): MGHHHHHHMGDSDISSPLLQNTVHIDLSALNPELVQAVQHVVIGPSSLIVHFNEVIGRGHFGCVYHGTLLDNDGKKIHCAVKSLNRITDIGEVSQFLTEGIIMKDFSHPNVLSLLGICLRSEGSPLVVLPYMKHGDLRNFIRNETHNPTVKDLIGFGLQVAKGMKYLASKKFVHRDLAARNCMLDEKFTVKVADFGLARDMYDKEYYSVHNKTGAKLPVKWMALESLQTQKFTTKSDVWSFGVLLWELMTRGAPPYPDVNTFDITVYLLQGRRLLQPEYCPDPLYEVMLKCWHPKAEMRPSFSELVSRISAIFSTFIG
T4 sequence (Q14289 whole entry): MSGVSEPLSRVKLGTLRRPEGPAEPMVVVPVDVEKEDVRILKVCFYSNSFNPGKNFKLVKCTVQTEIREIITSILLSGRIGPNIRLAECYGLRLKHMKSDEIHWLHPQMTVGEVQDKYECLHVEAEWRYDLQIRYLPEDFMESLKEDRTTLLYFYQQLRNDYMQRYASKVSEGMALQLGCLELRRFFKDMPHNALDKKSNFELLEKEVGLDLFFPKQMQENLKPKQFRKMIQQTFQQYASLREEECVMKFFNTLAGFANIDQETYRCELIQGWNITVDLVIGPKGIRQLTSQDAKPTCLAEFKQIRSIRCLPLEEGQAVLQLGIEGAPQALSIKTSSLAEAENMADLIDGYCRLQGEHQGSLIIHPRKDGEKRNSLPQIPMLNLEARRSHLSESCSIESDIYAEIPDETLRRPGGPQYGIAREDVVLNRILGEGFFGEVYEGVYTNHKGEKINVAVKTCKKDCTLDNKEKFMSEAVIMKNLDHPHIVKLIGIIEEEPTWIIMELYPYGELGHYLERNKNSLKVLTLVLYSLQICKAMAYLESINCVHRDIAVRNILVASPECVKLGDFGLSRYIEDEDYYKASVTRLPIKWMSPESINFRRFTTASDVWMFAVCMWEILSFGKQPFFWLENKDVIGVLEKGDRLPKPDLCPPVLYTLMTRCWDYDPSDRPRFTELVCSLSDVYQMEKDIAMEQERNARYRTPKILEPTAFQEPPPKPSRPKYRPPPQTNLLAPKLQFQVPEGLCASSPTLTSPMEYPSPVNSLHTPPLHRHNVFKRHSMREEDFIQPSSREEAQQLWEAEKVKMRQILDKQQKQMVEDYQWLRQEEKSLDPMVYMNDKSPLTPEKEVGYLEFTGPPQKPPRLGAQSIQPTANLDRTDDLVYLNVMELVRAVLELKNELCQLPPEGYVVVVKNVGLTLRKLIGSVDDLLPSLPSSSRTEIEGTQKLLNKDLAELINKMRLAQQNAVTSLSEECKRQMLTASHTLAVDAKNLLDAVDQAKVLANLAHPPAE
T2 sequence (P53779 whole entry): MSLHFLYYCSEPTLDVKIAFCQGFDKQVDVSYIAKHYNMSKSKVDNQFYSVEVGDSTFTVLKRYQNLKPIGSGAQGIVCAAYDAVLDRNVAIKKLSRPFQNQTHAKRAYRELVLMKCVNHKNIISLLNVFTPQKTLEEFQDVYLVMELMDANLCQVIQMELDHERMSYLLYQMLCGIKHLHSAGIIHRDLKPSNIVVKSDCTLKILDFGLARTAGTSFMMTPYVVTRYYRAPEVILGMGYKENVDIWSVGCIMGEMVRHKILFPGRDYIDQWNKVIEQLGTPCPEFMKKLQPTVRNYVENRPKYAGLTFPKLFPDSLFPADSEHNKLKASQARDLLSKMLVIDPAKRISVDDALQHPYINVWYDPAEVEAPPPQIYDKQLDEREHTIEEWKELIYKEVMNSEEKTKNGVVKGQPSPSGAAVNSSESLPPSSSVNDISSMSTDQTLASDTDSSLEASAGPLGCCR

Turning to `CCCS(=O)(=O)Nc1ccc(F)c(C(=O)c2c[nH]c3ncccc23)c1F` [Compound P-0007, Propane-1-sulfonic acid [2,4-difluoro-3-(1H-pyrrolo[2,3-b]pyridine-3-carbonyl)-phenyl]-amide], the concentration for half-maximal inhibition (IC50) (in general, the concentration that gives 50% inhibition) at Stk6 was not above 10 µM.
As to `Oc1ccc(F)c(C(O)c2c[nH]c3ncc(-c4cccnc4)cc23)c1F` (stereo not shown) [Compound P-0009, 2,4-difluoro-3-[hydroxy-(5-pyridin-3-yl-1H-pyrrolo[2,3-b]pyridin-3-yl)-methyl]-phenol], the half-maximal inhibitory concentration (IC50) on Jnk3, on Met and at Stk6 was not above 10 µM in each case.
Take `O=C(O)/C=C/c1cccc(-c2cnc3[nH]cc(C(=O)c4cc(O)ccc4F)c3c2)c1` [Compound P-0010]: the 50% inhibitory concentration (IC50) on Jnk3, at Pyk2 and on Stk6 was not above 10 µM each time.
Regarding `COc1ccc(C(=O)c2c[nH]c3ncc(-c4cccc(/C=C/C(=O)O)c4)cc23)c(Cl)c1` [Compound P-0015], the IC50 on Jnk3, on Met, at Pyk2 and at Stk6 was not above 10 µM each time.
In the case of `Cc1c(O)cccc1C(=O)c1c[nH]c2ncc(-c3ccccc3)cc12` [Compound P-0016, (3-Hydroxy-2-methyl-phenyl)-(5-phenyl-1H-pyrrolo[2,3b]pyridin-3-yl)-methanone], the IC50 on Jnk3 and on Met was not above 10 µM each time.
Regarding `O=C(c1cccc(O)c1F)c1c[nH]c2ncc(-c3cccnc3)cc12` [Compound P-0027, (2-Fluoro-3-hydroxy-phenyl)-(5-pyridin-3-yl-1H-pyrrolo[2,3-b]pyridin-3-yl)-methanone], the half-inhibitory concentration (IC50) at Jnk3 and at Met was not above 10 µM in each case.
As for `Cc1ccc(F)cc1C(=O)c1c[nH]c2ncc(-c3cccc(NS(C)(=O)=O)c3)cc12` [Compound P-0028], the half-maximal inhibitory concentration (IC50) on Met was not above 10 µM.
Consider `O=C(O)/C=C/c1cccc(-c2cnc3[nH]cc(C(=O)c4ccccc4F)c3c2)c1` [Compound P-0033], for which the IC50 on Jnk3 and on Stk6 was not above 10 µM throughout.
As to `NC(=O)c1cccc(-c2cnc3[nH]cc(C(=O)c4cccc(O)c4F)c3c2)c1` [Compound P-0034, 3-[3-(2-Fluoro-3-hydroxy-benzoyl)-1H-pyrrolo[2,3-b]pyridin-5-yl]benzamide], the concentration for half-maximal inhibition (IC50) on Jnk3 and at Met was not above 10 µM throughout.
`CC(=O)Nc1cccc(-c2cnc3[nH]cc(C(=O)c4cccc(O)c4F)c3c2)c1` [Compound P-0035, N-{3-[3-(2-Fluoro-3-hydroxy-benzoyl)-1H-pyrrolo[2,3-b]pyridin-5-yl]-phenyl}-acetamide]: the IC50 on Jnk3, at Met and on Stk6 was not above 10 µM in each case.
As for `O=C(c1cccc(O)c1F)c1c[nH]c2ncc(-c3ccccc3)cc12` [Compound P-0036, (2-fluoro-3-hydroxy-phenyl)-(5-phenyl-1H-pyrrolo[2,3-b]pyridin-3-yl)-methanone], the IC50 on Jnk3 was not above 10 µM.
Take `CS(=O)(=O)Nc1cccc(-c2cnc3[nH]cc(C(=O)c4cccc(O)c4F)c3c2)c1` [Compound P-0038, N-{3-[3-(2-Fluoro-3-hydroxy-benzoyl)-1H-pyrrolo[2,3-b]pyridin-5-yl]-phenyl}-methanesulfonamide]: the IC50 at Jnk3 and at Met was not above 10 µM throughout.
On to `O=C(c1cc(O)ccc1F)c1c[nH]c2ncc(-c3ccccc3)cc12` [Compound P-0045], for which the IC50 at Jnk3 and on Stk6 was not above 10 µM each time.
As for `Oc1cccc(Cc2c[nH]c3ncc(-c4cccs4)cc23)c1F` [Compound P-0052, 2-Fluoro-3-(5-thiophen-2-yl-1H-pyrrolo[2,3-b]pyridin-3-ylmethyl)-phenol], the IC50 at Jnk3, on Met, on Pyk2 and on Stk6 was not above 10 µM in each case.
On to `Oc1cccc(Cc2c[nH]c3ncc(-c4ccsc4)cc23)c1` [Compound P-0056], for which the IC50 on Jnk3, on Pyk2 and at Stk6 was not above 10 µM in each case.
For `Cc1ccc(S(=O)(=O)NCc2c[nH]c3ncccc23)cc1` [Compound P-0058], the IC50 on Jnk3, at Met, on Pyk2 and on Stk6 was not above 10 µM each time.
Take `Oc1ccc(F)c(Cc2c[nH]c3ncc(-c4cccnc4)cc23)c1F` [Compound P-0078, 2,4-difluoro-3-(5-pyridin-3-yl-1H-pyrrolo[2,3-b]pyridin-3-ylmethyl)-phenol]: the IC50 at Jnk3, at Met and on Pyk2 was not above 10 µM throughout.
With `Cc1c(NS(C)(=O)=O)cccc1C(=O)c1c[nH]c2ncc(-c3ccccc3)cc12` [Compound P-0082, N-[2-Methyl-3-(5-phenyl-1H-pyrrolo[2,3-b]pyridine-3-carbonyl)-phenyl]-methanesulfonamide], the concentration for half-maximal inhibition (IC50) at Met and at Stk6 was not above 10 µM in each case.
For the compound `CCCS(=O)(=O)Nc1ccc(F)c(C(=O)c2c[nH]c3ncc(-c4cccnc4)cc23)c1F` [Compound P-0088, Propane-1-sulfonic acid [2,4-difluoro-3-(5-pyridin-3-yl-1H-pyrrolo[2,3-b]pyridine-3-carbonyl)-phenyl]-amide], the half-inhibitory concentration (IC50) at Jnk3, at Pyk2 and at Stk6 was not above 10 µM each time.
Turning to `OC(c1c(F)ccc(F)c1F)c1c[nH]c2ncc(-c3cccnc3)cc12` (stereo not shown) [Compound P-0101], the half-maximal inhibitory concentration (IC50) on Met and at Stk6 was not above 10 µM each time.
Regarding `CS(=O)(=O)c1cccc(-c2cnc3[nH]cc(C(=O)c4c(F)ccc(F)c4F)c3c2)c1` [Compound P-0102, [5-(3-Methanesulfonyl-phenyl)-1H-pyrrolo[2,3-b]pyridin-3-yl]-(2,3,6-trifluoro-phenyl)-methanone], the IC50 on Jnk3 is not above 10 µM.
As for `Fc1cc(F)cc(-c2ccnc3[nH]cc(Sc4ccccn4)c23)c1` [Compound P-0106], the IC50 at Stk6 was not above 10 µM.
With `Cc1c(O)cccc1C(=O)c1c[nH]c2ncc(-c3cccs3)cc12` [Compound P-0114, (3-Hydroxy-2-methyl-phenyl)-(5-thiophen-2-yl-1H-pyrrolo[2,3b]pyridin-3-yl)-methanone], the IC50 at Jnk3 and on Met was not above 10 µM in each case.
Turning to `Oc1ccc(F)c(Cc2c[nH]c3ncc(Br)cc23)c1F` [Compound P-0122, 3-(5-Bromo-1H-pyrrolo[2,3-b]pyridin-3-ylmethyl)-2,4-difluoro-phenol], the 50% inhibitory concentration (IC50) at Jnk3 and on Pyk2 was not above 10 µM throughout.
With `O=C(c1ccccc1F)c1c[nH]c2ncc(-c3ccsc3)cc12` [Compound P-0134], on Jnk3, the IC50 was not above 10 µM.
Consider `CN(C)S(=O)(=O)Nc1ccc(F)c(Cc2c[nH]c3ncc(-c4cccnc4)cc23)c1F` [Compound P-0166], for which the IC50 on Jnk3 and on Pyk2 was not above 10 µM in each case.
For the compound `O=C(Nc1ccc(Cc2c[nH]c3ncccc23)cc1)Nc1cccc(C(F)(F)F)c1` [Compound P-0262, 1-[4-(1H-Pyrrolo[2,3-b]pyridin-3-ylmethyl)-phenyl]-3-(3-trifluoromethyl-phenyl)-urea], the IC50 on Met and at Pyk2 was not above 10 µM throughout.
On to `CCCS(=O)(=O)Nc1ccc(F)c(C(=O)c2c[nH]c3ncc(-c4ccccc4)cc23)c1F` [Compound P-0636, Propane-1-sulfonic acid [2,4-difluoro-3-(5-phenyl-1H-pyrrolo[2,3-b]pyridine-3-carbonyl)-phenyl]-amide], for which the 50% inhibitory concentration (IC50) at Jnk3 and on Pyk2 was not above 10 µM each time.
On to `CCCS(=O)(=O)Nc1ccc(F)c(C(=O)c2c[nH]c3ncc(OC)cc23)c1F` [Compound P-0806, Propane-1-sulfonic acid [2,4-difluoro-3-(5-methoxy-1H-pyrrolo[2,3-b]pyridine-3-carbonyl)-phenyl]-amide], for which the IC50 at Pyk2 and at Stk6 was not above 10 µM throughout.
Consider `CCCCNC(=O)Nc1ccc(F)c(C(=O)c2c[nH]c3ncc(-c4cccnc4)cc23)c1F` [Compound P-1318, 1-Butyl-3-[2,4-difluoro-3-(5-pyridin-3-yl-1H-pyrrolo[2,3-b]pyridine-3-carbonyl)-phenyl]-urea], for which, at Jnk3, the IC50 was not above 10 µM.
Turning to `COc1cccc(C(=O)c2c[nH]c3ncc(-c4cccc(NC(C)=O)c4)cc23)c1F` [Compound P-1336, N-{3-[3-(2-Fluoro-3-methoxy-benzoyl)-1H-pyrrolo[2,3-b]pyridin-5-yl]-phenyl}-acetamide], the 50% inhibitory concentration (IC50) on Stk6 was not above 10 µM.
As for `OCCOc1ccc(F)c(Cc2c[nH]c3ncc(-c4cccnc4)cc23)c1F` [Compound P-1394, 2-[2,4-Difluoro-3-(5-pyridin-3-yl-1H-pyrrolo[2,3-b]pyridin-3-ylmethyl)-phenoxy]-ethanol], the half-inhibitory concentration (IC50) on Jnk3, on Met and on Stk6 was not above 10 µM in each case.
In the case of `COc1cc(OC)cc(C(=O)c2c[nH]c3ncc(-c4cccc(NS(C)(=O)=O)c4)cc23)c1` [Compound P-1426, N-{3-[3-(3,5-Dimethoxy-benzoyl)-1H-pyrrolo[2,3-b]pyridin-5-yl]-phenyl}-methanesulfonamide], the IC50 on Stk6 is not above 10 µM.

(Values after patent publication US8415469B2, “Compounds and methods for kinase modulation, and indications therefor” (Plexxikon Inc., priority 2005, dated 2013).)
